Measurements taken from patent US20230365582A1, “NOVEL COMPOUNDS HAVING INHIBITORY ACTIVITY ON PROSTAGLANDIN E2 RECEPTOR AND USES THEREOF” (KANAPH THERAPEUTICS INC., priority 2020, published 2023).

What was measured:
hEP2 = target: T1, hEP2 (Homo sapiens, UniProt P43116); assay: hEP2 cAMP assay; assay type: cell-based; settings: HEK293 cells overexpressing hEP2; PGE2 agonist 400 pM; graded per Table 21; read-out: IC50 (nM) EP2 cAMP
T1 construct: expressed in transfected cells; host or cells: HEK293
Experimental: (§1) HEK293 cells overexpressing hEP2 were cultured in growth medium (GM: MEM (Gibco™, 11095080)/10% HI FBS (Gibco™, 10082147)/1% penicillin/streptomycin). Before the experiment, the growth medium was removed, and starvation medium (HBSS (Gibco™, 14025076)/10% GM) was added. Thereafter, the cells were incubated for 4 hours. The HEK293 cells harboring hEP2 were detached from the culture dish with a non-enzymatic cell dissociation buffer (Gibco™, 15040066). The cells were resuspended in assay buffer (AB: HBSS, 0.1% BSA stabilizer, 0.5 mM IBMX, 5 mM HEPES).
(§2) 1,000 cells in 5 μL of AB were seeded per well in a 384 well plate (Corning™, 3570), and stock solutions of test compounds were prepared at a concentration of 1 mM in DMSO and serially diluted in DMSO to the concentration required for the inhibition dose response curve (test concentration range of 10 μM-0.001 nM). PGE2 (Sigma, P0409, stock solution: 1 μM) was used as an agonist at a final concentration of 400 pM corresponding to EC50-80. 2.5 μL of the diluted compound and 2.5 μL of PGE2 (400 pM final concentration) were transferred to the assay plate, and then the plate was incubated at room temperature for 12 minutes.
(§3) 5 μL of each donor (Eu-cAMP tracer) and acceptor (ULight-anti-cAMP) was added, and the plate was incubated in the dark for 1 hour at room temperature, and then a Varioskan LUX multimode microplate reader was used to obtain the results (excitation: 334 nm, emission: 615 and 665 nm). The resulting FRET fluorescence value (665 nm/615 nm*10000) was converted and then calculated as a percentage of cAMP relative to the DMSO control value. IC50 values and curves were generated with GraphPad Prism software using log (inhibitor) versus response-variable slopes (4 parameters), and the median of multiple experiments was taken as the experiment result.

hEP4 = target: T2, hEP4 (Homo sapiens, UniProt P35408); assay: hEP4 cAMP assay; assay type: cell-based; settings: HEK293 cells overexpressing hEP4; PGE2 agonist 20 nM; graded per Table 21; read-out: IC50 (nM) EP4 cAMP
T2 construct: expressed in transfected cells; host or cells: HEK293
Experimental: as §1, with “overexpressing hEP4” for “overexpressing hEP2”, “(HBSS (Gibco™” for “(HBSS (Gibco™,”, “hours.” for “hours. The”, “harboring hEP4” for “harboring hEP2”
as §2, with “plate (Corning®,” for “plate (Corning™,”, “solution: 100” for “solution: 1”, “of 20 nM” for “of 400 pM”, “PGE2 (20 nM” for “PGE2 (400 pM”, “for 18.5” for “for 12”
as §3, with “compared” for “relative”, “slope” for “slopes”

T1 sequence (P43116 whole entry): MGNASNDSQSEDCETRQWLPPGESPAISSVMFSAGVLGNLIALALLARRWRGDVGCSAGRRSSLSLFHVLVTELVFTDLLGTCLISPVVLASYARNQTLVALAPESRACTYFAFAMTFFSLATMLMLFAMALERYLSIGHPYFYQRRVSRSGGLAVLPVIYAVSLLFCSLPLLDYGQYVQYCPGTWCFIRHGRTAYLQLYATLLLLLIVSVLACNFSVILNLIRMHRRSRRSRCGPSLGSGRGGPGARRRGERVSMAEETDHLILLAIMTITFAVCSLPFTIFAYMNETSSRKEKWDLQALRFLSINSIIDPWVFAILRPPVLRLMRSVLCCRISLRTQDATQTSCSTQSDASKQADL
T2 sequence (P35408 whole entry): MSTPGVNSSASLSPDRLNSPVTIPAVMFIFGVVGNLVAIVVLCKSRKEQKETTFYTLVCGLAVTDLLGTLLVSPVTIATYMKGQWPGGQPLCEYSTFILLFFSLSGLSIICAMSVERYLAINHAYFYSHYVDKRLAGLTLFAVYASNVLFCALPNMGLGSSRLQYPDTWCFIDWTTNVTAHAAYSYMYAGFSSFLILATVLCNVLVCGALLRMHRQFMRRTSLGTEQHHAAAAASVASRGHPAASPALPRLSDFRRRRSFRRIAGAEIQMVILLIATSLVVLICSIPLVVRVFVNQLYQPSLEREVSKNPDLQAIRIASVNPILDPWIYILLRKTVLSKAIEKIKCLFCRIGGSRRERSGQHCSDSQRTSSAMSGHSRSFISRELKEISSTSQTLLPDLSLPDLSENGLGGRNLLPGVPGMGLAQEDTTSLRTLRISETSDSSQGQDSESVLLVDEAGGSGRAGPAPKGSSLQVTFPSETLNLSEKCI

| IC50 (hEP2) | IC50 (hEP4) | SMILES |
| --- | --- | --- |
| > 10000 nM | > 10000 nM | Cc1sc(C)c(C(=O)N[C@H]2CC3(C2)C[C@H](C(=O)O)C3)c1Cc1ccc(-c2ccccc2)cc1 (single isomer, unassigned) [Example 1a] |
| 500 to 5000 nM | < 500 nM | Cc1sc(C)c(C(=O)N[C@H]2CC3(C2)C[C@H](C(=O)O)C3)c1Cc1ccc(-c2ccccc2)cc1 (single isomer, unassigned) [Example 1b] |
| 5000 to 10000 nM | 500 to 5000 nM | COc1cc(F)cc(-c2ccc(Cc3c(C)sc(C)c3C(=O)N[C@H]3CC4(C3)C[C@H](C(=O)O)C4)cc2)c1 (single isomer, unassigned) [Example 34a] |
| < 500 nM | < 500 nM | COc1cc(F)cc(-c2ccc(Cc3c(C)sc(C)c3C(=O)N[C@H]3CC4(C3)C[C@H](C(=O)O)C4)cc2)c1 (single isomer, unassigned) [Example 34b] |
| 500 to 5000 nM | 500 to 5000 nM | O=C(N[C@H]1CC2(C1)C[C@H](C(=O)O)C2)c1csc2ccn(Cc3ccc(-c4ccccc4)cc3)c12 (single isomer, unassigned) [Example 79a] |
| < 500 nM | < 500 nM | O=C(N[C@H]1CC2(C1)C[C@H](C(=O)O)C2)c1csc2ccn(Cc3ccc(-c4ccccc4)cc3)c12 (single isomer, unassigned) [Example 79b] |
| 500 to 5000 nM | > 10000 nM | Cc1sc2ccn(Cc3ccc(-c4ccccc4)cc3)c2c1C(=O)N[C@H]1CC2(C1)C[C@H](C(=O)O)C2 (single isomer, unassigned) [Example 80a] |
| – | < 500 nM | Cc1sc2ccn(Cc3ccc(-c4ccccc4)cc3)c2c1C(=O)N[C@H]1CC2(C1)C[C@H](C(=O)O)C2 (single isomer, unassigned) [Example 80b] |
| 500 to 5000 nM | < 500 nM | Cc1sc(C)c(C(=O)NC2CC3(C2)CC(C(=O)O)C3)c1Cc1ccc(-c2ccccc2)cc1 (stereo not shown) [Example 1, 6-(4-([1,1′-biphenyl]-4-ylmethyl)-2,5-dimethylthiophene-3-carboxamido)spiro[3.3]heptane-2-carboxylic acid] |
| > 10000 nM | > 10000 nM | Cc1ccc(Cc2c(C)sc(C)c2C(=O)NC2CC3(C2)CC(C(=O)O)C3)cc1 (stereo not shown) [Example 2, 6-(2,5-dimethyl-4-(4-methylbenzyl)thiophene-3-carboxamido)spiro[3.3]heptane-2-carboxylic acid] |
| > 10000 nM | 5000 to 10000 nM | Cc1sc(C)c(C(=O)NC2CC3(C2)CC(C(=O)O)C3)c1Cc1cccc(-c2ccccc2)c1 (stereo not shown) [Example 3, 6-(4-([1,1′-biphenyl]-3-ylmethyl)-2,5-dimethylthiophene-3-carboxamido)spiro[3.3]heptane-2-carboxylic acid] |
| > 10000 nM | > 10000 nM | Cc1sc(C)c(C(=O)NC2CC3(C2)CC(C(=O)O)C3)c1Cc1ccccc1-c1ccccc1 (stereo not shown) [Example 4, 6-(4-([1,1′-biphenyl]-2-ylmethyl)-2,5-dimethylthiophene-3-carboxamido)spiro[3.3]heptane-2-carboxylic acid] |
| > 10000 nM | 5000 to 10000 nM | Cc1sc(C)c(C(=O)NC2CC3(C2)CC(C(=O)O)C3)c1Cc1ccc(Oc2ccccc2)cc1 (stereo not shown) [Example 5, 6-(2,5-dimethyl-4-(4-phenoxybenzyl)thiophene-3-carboxamido)spiro[3.3]heptane-2-carboxylic acid] |
| > 10000 nM | > 10000 nM | Cc1sc(C)c(C(=O)NC2CC3(C2)CC(C(=O)O)C3)c1CCc1ccc(-c2ccccc2)cc1 (stereo not shown) [Example 6, 6-(4-(2-([1,1′-biphenyl]-4-yl)ethyl)-2,5-dimethylthiophene-3-carboxamido)spiro[3.3]heptane-2-carboxylic acid] |
| 500 to 5000 nM | < 500 nM | Cc1sc(C)c(C(=O)NC2CC3(C2)CC(C(=O)O)C3)c1Cc1ccc(-c2ccccc2)cc1F (stereo not shown) [Example 7, 6-(4-((3-fluoro-[1,1′-biphenyl]-4-yl)methyl)-2,5-dimethylthiophene-3-carboxamido)spiro[3.3]heptane-2-carboxylic acid] |
| > 10000 nM | 500 to 5000 nM | Cc1sc(C)c(C(=O)NC2CC3(C2)CC(C(=O)O)C3)c1Cc1ccc(-c2ccccc2)c(N)c1 (stereo not shown) [Example 8, 6-(4-((2-amino-[1,1′-biphenyl]-4-yl)methyl)-2,5-dimethylthiophene-3-carboxamido)spiro [3.3]heptane-2-carboxylic acid] |
| > 10000 nM | > 10000 nM | Cc1sc(C)c(C(=O)NC2CC3(C2)CC(C(=O)O)C3)c1Cc1ccc(N2CCOCC2)cc1 (stereo not shown) [Example 9, 6-(2,5-dimethyl-4-(4-morpholinobenzyl)thiophene-3-carboxamido)spiro[3.3]heptane-2-carboxylic acid] |
| > 10000 nM | 500 to 5000 nM | Cc1sc(C)c(C(=O)c2ccc(-c3ccccc3)cc2)c1C(=O)NC1CC2(C1)CC(C(=O)O)C2 (stereo not shown) [Example 10, 6-(4-([1,1′-biphenyl]-4-carbonyl)-2,5-dimethylthiophene-3-carboxamido)spiro[3.3]heptane-2-carboxylic acid] |
| > 10000 nM | < 500 nM | Cc1sc(C)c(C(O)c2ccc(-c3ccccc3)cc2)c1C(=O)NC1CC2(C1)CC(C(=O)O)C2 (stereo not shown) [Example 11, 6-(4-([1,1′-biphenyl]-4-yl(hydroxy)methyl)-2,5-dimethylthiophene-3-carboxamido)spiro[3.3]heptane-2-carboxylic acid] |
| > 10000 nM | > 10000 nM | COC(c1ccc(-c2ccccc2)cc1)c1c(C)sc(C)c1C(=O)NC1CC2(C1)CC(C(=O)O)C2 (stereo not shown) [Example 12, 6-(4-([1,1′-biphenyl]-4-yl(methoxy)methyl)-2,5-dimethylthiophene-3-carboxamido)spiro[3.3]heptane-2-carboxylic acid] |
| 500 to 5000 nM | 500 to 5000 nM | O=C(NC1CC2(C1)CC(C(=O)O)C2)c1cscc1Cc1ccc(-c2ccccc2)cc1 (stereo not shown) [Example 13, 6-(4-([1,1′-biphenyl]-4-ylmethyl)thiophene-3-carboxamido)spiro[3.3]heptane-2-carboxylic acid] |
| 500 to 5000 nM | 500 to 5000 nM | Cc1scc(Cc2ccc(-c3ccccc3)cc2)c1C(=O)NC1CC2(C1)CC(C(=O)O)C2 (stereo not shown) [Example 14, 6-(4-([1,1′-biphenyl]-4-ylmethyl)-2-methylthiophene-3-carboxamido)spiro[3.3]heptane-2-carboxylic acid] |
| < 500 nM | < 500 nM | O=C(NC1CC2(C1)CC(C(=O)O)C2)c1csc(Br)c1Cc1ccc(-c2ccccc2)cc1 (stereo not shown) [Example 15, 6-(4-([1,1′-biphenyl]-4-ylmethyl)-5-bromothiophene-3-carboxamido)spiro[3.3]heptane-2-carboxylic acid] |
| > 10000 nM | 500 to 5000 nM | O=C(NC1CC2(C1)CC(C(=O)O)C2)c1c(Br)sc(Br)c1Cc1ccc(-c2ccccc2)cc1 (stereo not shown) [Example 16, 6-(4-([1,1′-biphenyl]-4-ylmethyl)-2,5-dibromothiophene-3-carboxamido)spiro[3.3]heptane-2-carboxylic acid] |
| 5000 to 10000 nM | < 500 nM | O=C(NC1CC2(C1)CC(C(=O)O)C2)c1c(Cl)sc(Cl)c1Cc1ccc(-c2ccccc2)cc1 (stereo not shown) [Example 17, 6-(4-([1,1′-biphenyl]-4-ylmethyl)-2,5-dichlorothiophene-3-carboxamido)spiro[3.3]heptane-2-carboxylic acid] |
